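GI50 marks 50% less growth. TGI denotes the concentration required for complete inhibition of growth.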
Columns and labels:
Assay in all cases: NCI-60 cell line screen, 384-well format
NCI-H322M lung = system: NCI-H322M lung
MDA-MB-231 breast = system: MDA-MB-231 breast
A498 renal = system: A498 renal
SF-295 CNS = system: SF-295 CNS
SW-620 colon = system: SW-620 colon
MDA-MB-468 breast = system: MDA-MB-468 breast
RXF 393 renal = system: RXF 393 renal
EKVX NSCLC = system: EKVX NSCLC
OVCAR-8 ovarian = system: OVCAR-8 ovarian
UACC-257 melanoma = system: UACC-257 melanoma
OVCAR-4 ovarian = system: OVCAR-4 ovarian
DU-145 prostate = system: DU-145 prostate
NCI-H226 lung = system: NCI-H226 lung
OVCAR-5 ovarian = system: OVCAR-5 ovarian
T-47D breast = system: T-47D breast
HCC-2998 colon = system: HCC-2998 colon
UO-31 renal = system: UO-31 renal
KM12 colon = system: KM12 colon
ACHN renal = system: ACHN renal
RPMI-8226 leukemia = system: RPMI-8226 leukemia
NCI-H460 NSCLC = system: NCI-H460 NSCLC
A549 NSCLC = system: A549 NSCLC
NCI-H23 lung = system: NCI-H23 lung
PC-3 prostate = system: PC-3 prostate
COLO 205 colon = system: COLO 205 colon
MCF7 breast = system: MCF7 breast
SNB-75 CNS = system: SNB-75 CNS
UACC-62 melanoma = system: UACC-62 melanoma
786-0 renal = system: 786-0 renal
NCI/ADR-RES ovarian = system: NCI/ADR-RES ovarian
CAKI-1 renal = system: CAKI-1 renal
OVCAR-3 ovarian = system: OVCAR-3 ovarian
MDA-MB-435 melanoma = system: MDA-MB-435 melanoma
MOLT-4 leukemia = system: MOLT-4 leukemia
BT-549 breast = system: BT-549 breast
SK-MEL-28 melanoma = system: SK-MEL-28 melanoma
SF-539 CNS = system: SF-539 CNS
U251 glioblastoma = system: U251 glioblastoma
CCRF-CEM leukemia = system: CCRF-CEM leukemia
HCT-15 colon = system: HCT-15 colon
SN12C renal = system: SN12C renal
HL-60(TB) leukemia = system: HL-60(TB) leukemia
NCI-H522 lung = system: NCI-H522 lung
HCT-116 colon = system: HCT-116 colon
SK-MEL-5 melanoma = system: SK-MEL-5 melanoma
SR leukemia = system: SR leukemia
HT29 colon = system: HT29 colon
MALME-3M melanoma = system: MALME-3M melanoma
K-562 leukemia = system: K-562 leukemia
TK-10 renal = system: TK-10 renal
SNB-19 CNS = system: SNB-19 CNS
HOP-92 NSCLC = system: HOP-92 NSCLC
SF-268 CNS = system: SF-268 CNS
HOP-62 NSCLC = system: HOP-62 NSCLC
SK-OV-3 ovarian = system: SK-OV-3 ovarian
IGROV1 ovarian = system: IGROV1 ovarian

O=C(Cc1cccc(OC(F)(F)F)c1)Nc1ccc(CCCCc2nnc(NC(=O)Cc3ccccn3)s2)nn1
GI50 (NCI-H322M lung): 0.0199 µM | TGI (NCI-H322M lung): 0.0551 µM | GI50 (MDA-MB-231 breast): 0.0339 µM | TGI (MDA-MB-231 breast): 18.8 µM | GI50 (A498 renal): 0.0303 µM | TGI (A498 renal): 0.16 µM | GI50 (SF-295 CNS): 5.17 µM | TGI (SF-295 CNS): > 23.1 µM | GI50 (SW-620 colon): > 100 µM | TGI (SW-620 colon): > 100 µM | GI50 (MDA-MB-468 breast): 8.47 µM | TGI (MDA-MB-468 breast): 93.3 µM | GI50 (RXF 393 renal): 0.0372 µM | TGI (RXF 393 renal): 0.141 µM | GI50 (EKVX NSCLC): 2.74 µM | TGI (EKVX NSCLC): > 100 µM | GI50 (OVCAR-8 ovarian): 1.22 µM | TGI (OVCAR-8 ovarian): 17.3 µM | GI50 (UACC-257 melanoma): 14.4 µM | TGI (UACC-257 melanoma): 48 µM | GI50 (OVCAR-4 ovarian): 9.65 µM | TGI (OVCAR-4 ovarian): > 31.1 µM | GI50 (DU-145 prostate): 31.4 µM | TGI (DU-145 prostate): > 100 µM | GI50 (NCI-H226 lung): 0.282 µM | TGI (NCI-H226 lung): 0.983 µM | GI50 (OVCAR-5 ovarian): 0.362 µM | TGI (OVCAR-5 ovarian): > 100 µM | GI50 (T-47D breast): 1.87 µM | TGI (T-47D breast): 9.66 µM | TGI (HCC-2998 colon): > 100 µM | GI50 (UO-31 renal): 5.66 µM | GI50 (KM12 colon): 0.068 µM | TGI (KM12 colon): > 100 µM | GI50 (ACHN renal): 2.52 µM | TGI (ACHN renal): > 71 µM | GI50 (RPMI-8226 leukemia): 0.0377 µM | TGI (RPMI-8226 leukemia): 0.175 µM | GI50 (NCI-H460 NSCLC): 0.165 µM | TGI (NCI-H460 NSCLC): 19.2 µM | GI50 (A549 NSCLC): 0.0172 µM | TGI (A549 NSCLC): 0.061 µM | GI50 (NCI-H23 lung): 4.78 µM | TGI (NCI-H23 lung): 39.6 µM | GI50 (PC-3 prostate): > 100 µM | TGI (PC-3 prostate): > 100 µM | GI50 (COLO 205 colon): 36.2 µM | TGI (COLO 205 colon): > 100 µM | GI50 (MCF7 breast): 6.1 µM | TGI (MCF7 breast): > 100 µM | GI50 (SNB-75 CNS): 18.5 µM | TGI (SNB-75 CNS): 55.9 µM | GI50 (UACC-62 melanoma): 4.76 µM | TGI (UACC-62 melanoma): > 33.5 µM | GI50 ([…]-0 renal): 0.0294 µM | TGI (786-0 renal): 0.248 µM | GI50 (NCI/ADR-RES ovarian): > 100 µM | TGI (NCI/ADR-RES ovarian): > 100 µM | GI50 (CAKI-1 renal): 0.193 µM | TGI (CAKI-1 renal): 18 µM | GI50 (OVCAR-3 ovarian): > 21.4 µM | TGI (OVCAR-3 ovarian): > 100 µM | GI50 (MDA-MB-435 melanoma): > 100 µM | TGI (MDA-MB-435 melanoma): > 100 µM | GI50 (MOLT-4 leukemia): 2.04 µM | TGI (MOLT-4 leukemia): > 100 µM | GI50 (BT-549 breast): 2.26 µM | TGI (BT-549 breast): 11.2 µM | GI50 (SK-MEL-28 melanoma): 30.8 µM | TGI (SK-MEL-28 melanoma): > 87.1 µM | GI50 (SF-539 CNS): 0.224 µM | TGI (SF-539 CNS): 14.4 µM | GI50 (U251 glioblastoma): 0.0338 µM | TGI (U251 glioblastoma): 11.8 µM | GI50 (CCRF-CEM leukemia): 0.375 µM | TGI (CCRF-CEM leukemia): > 100 µM | GI50 (HCT-15 colon): > 72.6 µM | TGI (HCT-15 colon): > 100 µM | GI50 (SN12C renal): 0.0217 µM | GI50 (HL-60(TB) leukemia): 0.687 µM | TGI (HL-60(TB) leukemia): > 100 µM | GI50 (NCI-H522 lung): 0.075 µM | TGI (NCI-H522 lung): 4.05 µM | GI50 (HCT-116 colon): 0.162 µM | TGI (HCT-116 colon): > 33.4 µM | GI50 (SK-MEL-5 melanoma): 0.891 µM | TGI (SK-MEL-5 melanoma): 17.2 µM | GI50 (SR leukemia): 0.439 µM | TGI (SR leukemia): 18.7 µM | GI50 (HT29 colon): > 100 µM | TGI (HT29 colon): > 100 µM | GI50 (MALME-3M melanoma): 23.1 µM | TGI (MALME-3M melanoma): > 56.7 µM | GI50 (K-562 leukemia): 8.95 µM | TGI (K-562 leukemia): > 100 µM | GI50 (TK-10 renal): 0.637 µM | TGI (TK-10 renal): 18.3 µM | GI50 (SNB-19 CNS): 39.4 µM | TGI (SNB-19 CNS): 97.2 µM | GI50 (HOP-92 NSCLC): 6.95 µM | TGI (HOP-92 NSCLC): 32.4 µM | GI50 (SF-268 CNS): 0.201 µM | TGI (SF-268 CNS): 1.98 µM | GI50 (HOP-62 NSCLC): 0.0537 µM | TGI (HOP-62 NSCLC): 0.335 µM | GI50 (SK-OV-3 ovarian): 0.0809 µM | TGI (SK-OV-3 ovarian): 25.2 µM | GI50 (IGROV1 ovarian): > 31.6 µM | TGI (IGROV1 ovarian): > 31.6 µM
